Laboratory results published in ChEMBL document CHEMBL1201862, “PubChem BioAssay data set” (2004).
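Exposure lasted 48 hours, with cells grown in 96-well plates and compounds tested at five concentrations. Here, GI50 denotes the concentration required for 50% inhibition of growth.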 Calls of active or inactive are those of the source. Cut-off read from the data, not from the text of the source: active = GI50 up to about 1.1 µM and inactive = higher.

Key:
Assay in all cases: inhibition of tumour cell growth, NCI panel, 48 h
[1] = test system: OVCAR-8
[2] = test system: A549
[3] = test system: UACC-257
[4] = test system: SNB-19
[5] = test system: OVCAR-4
[6] = test system: SK-MEL-2
[7] = test system: HOP-62
[8] = test system: OVCAR-5
[9] = test system: RXF 393
[10] = test system: RPMI-8226
[11] = test system: OVCAR-3
[12] = test system: MDA-N
[13] = test system: HT-29
[14] = test system: SK-OV-3
[15] = test system: SF-268
[16] = test system: U-251
[17] = test system: NCI-H522
[18] = test system: KM12
[19] = test system: SW-620
[20] = test system: LOX IMVI

Measured: GI50

COc1cc(Cn2c3c(c4c(C(=O)NCCN(C)C)c(O)ccc42)C(=O)c2ccccc2C3=O)cc(OC)c1
inactive: [1] 1.91 µM | [2] 1.88 µM | [3] 1.97 µM | [4] 2.51 µM | [5] 1.71 µM | [6] 1.8 µM | [7] 2 µM | [8] 1.67 µM | [9] 1.68 µM | [10] 1.87 µM | [11] 1.73 µM | [12] 1.63 µM | [13] 1.87 µM | [14] 1.94 µM | [15] 1.99 µM | [16] 1.64 µM | [17] 1.71 µM | [18] 1.58 µM

COC(=O)C(CC12CC3CC(CC(C3)C1)C2)NC(=O)C(N)CC(=O)O (configuration not stated)
inactive: [1] > 100 µM | [2] > 100 µM | [3] > 100 µM | [4] > 100 µM | [19] > 100 µM | [5] > 100 µM | [6] > 100 µM | [7] > 100 µM | [8] > 100 µM | [9] > 100 µM | [10] > 100 µM | [12] > 100 µM | [13] > 100 µM | [14] > 100 µM | [15] > 100 µM | [16] > 100 µM | [17] > 100 µM | [18] > 100 µM

C=C(C)/C=C/C(O)[C@](C)(O)[C@H]1[C@H](O)C[C@@]2(C)[C@@H]3CCc4c(cc(OC5OC(CO)C(O)C(O)C5O)c(O)c4C)C3(C)C(=O)C[C@]12C (some centres not stated)
inactive: [1] > 100 µM | [2] > 100 µM | [3] > 100 µM | [4] > 100 µM | [19] > 100 µM | [5] > 100 µM | [6] > 100 µM | [20] > 100 µM | [7] > 100 µM | [8] > 100 µM | [9] > 100 µM | [11] > 100 µM | [12] > 100 µM | [13] > 100 µM | [14] > 100 µM | [15] > 100 µM | [16] > 100 µM | [17] > 100 µM | [18] > 100 µM

NC(CSc1nc2ccccn2c1[N+](=O)[O-])C(=O)O (configuration not stated)
inactive: [1] > 100 µM | [2] > 100 µM | [3] > 100 µM | [4] > 100 µM | [19] > 100 µM | [5] > 100 µM | [6] > 100 µM | [7] > 100 µM | [8] > 100 µM | [9] > 100 µM | [10] > 100 µM | [11] > 100 µM | [12] > 100 µM | [13] > 100 µM | [14] > 100 µM | [15] > 100 µM | [16] > 100 µM | [17] > 100 µM | [18] > 100 µM

CC1(C)Cc2c(cnn2-c2ccc(C(F)(F)F)cc2)-c2[nH]c(-c3ccc(O)cc3)nc21
inactive: [1] 20.8 µM | [2] 12.7 µM | [3] 16.4 µM | [4] 16.6 µM | [19] 14.5 µM | [5] 12.2 µM | [20] 17.8 µM | [7] 21.4 µM | [8] 17.8 µM | [9] 3.46 µM | [11] 13.9 µM | [12] 14.6 µM | [13] 3.99 µM | [14] 21.4 µM | [15] 9.16 µM | [16] 12.3 µM | [17] 8.99 µM | [18] 13 µM

c1ccc2sc(C3(N4CCCCCC4)CCCCC3)cc2c1
inactive: [1] 29.5 µM | [2] 35.2 µM | [3] 21.5 µM | [4] 18.7 µM | [19] 18.2 µM | [5] 28.4 µM | [20] 20.6 µM | [7] 26.2 µM | [8] 17.8 µM | [9] 17.7 µM | [11] 16.3 µM | [12] 28.9 µM | [13] 15.3 µM | [14] 29 µM | [15] 25.8 µM | [16] 19.2 µM | [17] 21.1 µM | [18] 16.1 µM

COc1ccc(S(=O)(=O)Nc2ccc(-c3csc(N4C(=O)/C(=C/c5ccccc5[N+](=O)[O-])N=C4c4ccccc4)n3)cc2)cc1Cl
inactive: [1] 35.3 µM | [2] 33 µM | [3] 38.6 µM | [4] 59 µM | [19] 46 µM | [5] 19.7 µM | [6] 60.5 µM | [20] 34.8 µM | [7] > 100 µM | [8] 73.6 µM | [9] 50.8 µM | [11] 26 µM | [12] 60 µM | [13] > 100 µM | [14] > 100 µM | [15] 38.8 µM | [16] 37.2 µM | [17] 35.9 µM | [18] 50.6 µM

CC(=O)Oc1cc(C(F)(F)F)ccc1C(=O)OC1(C)OC(=O)c2ccc(C(F)(F)F)cc2O1 (configuration not stated)
inactive: [1] > 100 µM | [2] > 100 µM | [3] > 100 µM | [4] > 100 µM | [19] > 100 µM | [5] > 100 µM | [20] > 100 µM | [7] > 100 µM | [8] > 100 µM | [9] > 100 µM | [11] > 100 µM | [12] > 100 µM | [13] > 100 µM | [14] > 100 µM | [15] > 100 µM | [16] > 100 µM | [17] > 100 µM | [18] > 100 µM
